A melting point compilation (Tetko et al.; mined from patent text by program, amines drawn as free bases though some values may be those of a salt)

Which melting point does the source give for Nc1ncnc2c1nc(Br)n2Cc1ccccc1 here?
Its melting point is 199 to 201 °C.

Which melting point does the source give for CO[C@@H]1C[C@H]2[C@H](C(=O)O)[C@H]2[C@]1(N)C(=O)O here?
Its melting point is over 250 °C.

For CCOC(=O)CCn1cnc2c1N=CNC2N (stereo unspecified), which melting point is on record?
Its melting point is 166 to 167 °C.

Which melting point does the source give for CCOC(=O)C1C(C)C=CC(NC(=O)OC(C)(C)C)C1[N+](=O)[O-] (stereo unspecified) here?
Its melting point is 139 to 145 °C.

With CC/C(=C\c1ccc(OCCOC)cc1Oc1ncc(Cl)cc1Cl)C(=O)O as the molecule, how does the melting point read?
Its melting point is 139 to 140 °C.

For CCCCCCCCCCCCC(C)COc1ccc(C(=O)O)o1 (stereo unspecified), which melting point is on record?
Its melting point is 88 to 90 °C.

With CN1COc2c(N3CC4CCOC4(CNC(=O)OC(C)(C)C)C3)c(F)cc3c(=O)c(C(=O)O)cn1c23 (stereo unspecified) as the molecule, how does the melting point read?
The melting point was 176 °C.

Which melting point does the source give for C[C@@H](c1ccc(-c2ncc(C(=O)N(C)C)s2)cc1)N1CC[C@](CC(C)(C)O)(c2ccccc2)OC1=O here?
The melting point was 110 to 112 °C.

For CCC(OC(C)=O)c1ccc(C(OC(C)=O)C(C)(C)C)cc1 (stereo unspecified), which melting point is on record?
The melting point was 64 to 65 °C.

With O=c1[nH]cnc2c1-c1ccc(Cl)cc1C(c1ccccc1)=NC2 as the molecule, how does the melting point read?
The melting point was 226 to 229 °C.

Which melting point does the source give for COc1cc2ncnc(N3CCN(C(=O)NCc4ccc(CO)cc4)CC3)c2cc1OC here?
Its melting point is 228 to 229 °C.

Which melting point does the source give for COCCn1cc(C(=O)NCc2ccc(Cl)cc2)c(=O)c2cc(CO)sc21 here?
The melting point was 193 °C.

With NNc1nc(C(F)(F)F)c(Cl)s1 as the molecule, how does the melting point read?
Its melting point is 136 to 137 °C.

Which melting point does the source give for N#Cc1c(N)nc2ccccc2c1NCc1cccs1 here?
Its melting point is 208 °C.

Which melting point does the source give for O=C(Nc1ccc(C(=O)N2C[C@@H]3CCCN3S(=O)(=O)c3ccccc32)cc1)c1ccccc1-c1ccccc1 here?
Its melting point is 142 to 143 °C.

For CNC(=O)N1N=C(c2ccc(NC(C)=O)cc2)c2cc3c(cc2CC1C)OCO3 (stereo unspecified), which melting point is on record?
Its melting point is 150 to 152 °C.

With O=C1c2ccccc2C(=O)N1CCNOCc1ccccc1 as the molecule, how does the melting point read?
The melting point was 89 to 91 °C.

For O=C(CC1(c2ccccc2)C(=O)Oc2ccc(Cl)cc21)N1CCN(c2ccc(C(F)(F)F)cn2)CC1 (stereo unspecified), which melting point is on record?
Its melting point is 228 °C.

With CCCCCC(C)C(C)c1cc(O)c2c3c(c(=O)oc2c1)CSCC3 (stereo unspecified) as the molecule, how does the melting point read?
The melting point was 150 to 152 °C.

For Clc1cccc(Nc2ncnc3[nH]nc(NCc4ccc(-c5nccs5)cc4)c23)c1, which melting point is on record?
The melting point was 241 to 243 °C.

With O=CNc1nc(S(=O)(=O)Nc2c(F)cccc2F)n[nH]1 as the molecule, how does the melting point read?
The melting point was 258 to 260 °C.

Which melting point does the source give for CCCc1nc(N)c(C#N)[nH]1 here?
Its melting point is 117 to 119 °C.

For Cc1cc(C)c2c(O)c([N+](=O)[O-])c(=O)oc2c1, which melting point is on record?
Its melting point is 186 to 187 °C.

Which melting point does the source give for O=C1[C@H]2CCC[C@H]2Nc2ccccc2N1Cc1ccc(OCc2ccccc2)cc1 (relative stereo) here?
Its melting point is 154 to 155 °C.

Which melting point does the source give for CCOC(=O)C(=O)Nc1ccc2cccc([N+](=O)[O-])c2c1NC(=O)C(=O)OCC here?
The melting point was 173 to 175 °C.

Which melting point does the source give for CN(C)c1ccc(S(=O)(=O)NCCCCC(=O)O)cc1 here?
The melting point was 105 to 110 °C.

For Fc1ccc(CN2CCc3cc(OC[C@H]4CO[C@](Cn5ccnc5)(c5ccc(Cl)cc5Cl)O4)ccc3C2)cc1 (racemic), which melting point is on record?
The melting point was 119 to 120 °C.

Which melting point does the source give for COc1ccc(-n2nc3c4c([nH]cc-3c2=O)CCCC4)cc1 here?
Its melting point is 279 to 282 °C.

Which melting point does the source give for FC(F)(F)c1cccc(-c2ccc3nnc(C(F)(F)F)n3n2)c1 here?
Its melting point is 189 °C.

With COC(=O)CNC(=O)C(CS)NC(=O)CNC(=O)CS (stereo unspecified) as the molecule, how does the melting point read?
Its melting point is 149 to 151 °C.

For Cn1nc(N)c2sc3cc(O)c(O)cc3c21, which melting point is on record?
Its melting point is 305 to 307 °C.

Which melting point does the source give for Cc1cc(C#N)c2ccccn12 here?
The melting point was 98 to 100 °C.

For c1coc(-c2ccc3c(n2)[nH]c2ccccc23)c1, which melting point is on record?
The melting point was 208 to 210 °C.

Which melting point does the source give for CCOc1cccnc1CSCCNC(=C[N+](=O)[O-])SC here?
Its melting point is 126 to 127 °C.

Which melting point does the source give for COC(=O)c1cc(C(=O)c2ncc3ccc(N(C)C(=O)OC(C)(C)C)cn23)ccc1[N+](=O)[O-] here?
Its melting point is 55 °C.

For CC1(C)Nc2ccc3c(c2N1)C(=O)c1ccccc1C3=O, which melting point is on record?
The melting point was 235 to 237 °C.

For CCCCOC(=O)c1ccc(OCCCC)c(C(C)=O)c1, which melting point is on record?
Its melting point is 39 to 40 °C.

Which melting point does the source give for COCCSc1ccccc1S(=O)(=O)NC(=O)Nc1nc(C)nc(OC)n1 here?
The melting point was 127 to 128 °C.

With Cc1cc([N+](=O)[O-])cc(C)c1Oc1ccc([N+](=O)[O-])c(Nc2ccc(C#N)cc2)n1 as the molecule, how does the melting point read?
Its melting point is 250 to 252 °C.

For COc1ccc(C(=O)N2c3ccccc3C(n3c4ccccc4c4ccccc43)CC2CCCCCOc2ccc(F)cc2)cc1OC (stereo unspecified), which melting point is on record?
Its melting point is 157 to 159 °C.

For CC(C)S(=O)(=O)Nc1cccc2c3c([nH]c12)C(=O)CCC3, which melting point is on record?
The melting point was 267 to 268 °C.

For C=CCCCc1ccc(C=CC(=O)c2ccc(OCC=C(C)C)cc2)c(OCC(=O)O)c1, which melting point is on record?
The melting point was 116 to 118 °C.

With CCCC(=O)Nc1cc(S(=O)c2ccccc2)ccc1N(C(=N)NC(=O)OC)C(=O)OC (stereo unspecified) as the molecule, how does the melting point read?
Its melting point is 134 °C.

With COc1nc2cnccc2nc1NS(=O)(=O)c1cccc(Cl)c1Cl as the molecule, how does the melting point read?
Its melting point is 256 to 257 °C.

Which melting point does the source give for CC(C)c1ccc(C(=O)O)cc1S(N)(=O)=O here?
The melting point was 245 °C.

For Cc1c(N2CC(F)[C@](C)(N)C2)c(F)cc2c(=O)c(C(=O)O)cn([C@@H]3C[C@@H]3F)c12 (stereo partly specified), which melting point is on record?
The melting point was 215 to 217 °C.

With C#C[C@H](Cc1cccc(F)c1)n1nnc2cc3c(cc2c1=O)OCN(C1CC1)C3=O as the molecule, how does the melting point read?
Its melting point is 168 to 180 °C.

Which melting point does the source give for CCOC(=O)C(CCCc1ccccc1)(NC(C)=O)C(=O)OCC here?
The melting point was 76 to 77 °C.

With CCOC(=O)C(Cc1ccccc1)CP(=O)(OCC)OCC (stereo unspecified) as the molecule, how does the melting point read?
Its melting point is 58 to 72 °C.

With c1ccc2c(c1)-c1ccccc1C21c2cccnc2-c2ncccc21 as the molecule, how does the melting point read?
The melting point was 208 to 210 °C.

With CCOC(=O)/C=C/c1cccc(-c2c(CC(=O)Nc3ccc(F)cc3C(F)(F)F)c(=O)oc3cc(Cl)c(C)cc23)c1 as the molecule, how does the melting point read?
Its melting point is 193 to 196 °C.
